Reference: PubChem BioAssay (NCI)
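Results reflect a 48-hour exposure of cells in 96-well plates to compound at five concentrations. The concentration for 50% growth inhibition is given as GI50. Definition used: TGI = concentration required for complete inhibition of growth.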

How the values were obtained:
Assay in all cases: DTP human tumour cell line panel, 48 h
[1] = test system: 786-0 renal
[2] = test system: A498 renal
[3] = test system: EKVX NSCLC
[4] = test system: HT29 colon
[5] = test system: SK-MEL-5 melanoma
[6] = test system: SW-620 colon
[7] = test system: COLO 205 colon
[8] = test system: K-562 leukemia
[9] = test system: SNB-19 CNS
[10] = test system: UACC-62 melanoma

| SMILES | GI50 [1] [nM] | TGI [1] [µM] | GI50 [2] [nM] | TGI [2] [µM] | GI50 [3] [nM] | TGI [3] [µM] | GI50 [4] [nM] | TGI [4] [µM] | GI50 [5] [nM] | TGI [5] [µM] | GI50 [6] [nM] | TGI [6] [µM] | GI50 [7] [nM] | TGI [7] [µM] | GI50 [8] [nM] | TGI [8] [µM] | GI50 [9] [nM] | TGI [9] [µM] | GI50 [10] [nM] | TGI [10] [µM] |
| --- | --- | --- | --- | --- | --- | --- | --- | --- | --- | --- | --- | --- | --- | --- | --- | --- | --- | --- | --- | --- |
| COc1ccc2c(c1)c(-c1nc(-c3cn(C)c4ncccc34)cs1)cn2CCCCN1CCCCC1 | 1610 | 3.06 | 1660 | 3.11 | 1660 | 3.18 | 1590 | 3.03 | 1710 | 3.08 | 1620 | 2.99 | – | – | – | – | – | – | – | – |
| N=C(N)c1ccc(-c2ccc(-c3cccs3)s2)cc1F | 1140 | 2.63 | 156 | 0.621 | – | – | – | – | 1270 | 2.69 | 506 | 1.94 | 202 | 0.39 | 341 | 1.31 | 1770 | 3.65 | 1620 | 3.34 |
| CNC(=S)N/N=C/CSC/C=N/NC(=S)NC | > 100000 | > 100 | > 100000 | > 100 | – | – | – | – | > 100000 | > 100 | 41100 | > 100 | > 100000 | > 100 | 3080 | > 100 | > 100000 | > 100 | > 100000 | > 100 |
| Cc1cc2c(=O)cc(-c3ccncc3)oc2c(C(N)=O)c1C | – | > 100 | – | – | – | > 100 | – | > 100 | – | – | – | > 100 | – | > 100 | – | – | – | > 100 | – | > 100 |
| C=CN(C(=O)N1CCN(c2cc3c(cc2F)c(=O)c(C(=O)O)cn3C2CC2)CC1)c1nc(-c2ccc(C)cc2)cs1 | 333 | 10.5 | – | – | 3610 | > 100 | 3310 | > 100 | – | – | 4500 | > 100 | 2090 | 4.72 | 1960 | > 100 | 4160 | > 100 | – | – |
| Cc1ccccc1C1N=C2Oc3ccccc3C=C2C(=O)N1 (stereo unspecified) | 14100 | > 100 | 347 | 2.58 | – | – | 4480 | > 100 | 674 | > 100 | 4740 | > 100 | 1460 | 15 | 4010 | > 100 | > 42900 | > 100 | 1480 | > 100 |
| O=c1[nH]c(-c2ccncc2)nc2sc3c(c12)CCCCCC3 | > 100000 | > 100 | > 100000 | > 100 | – | – | > 100000 | > 100 | > 100000 | > 100 | > 100000 | > 100 | > 100000 | > 100 | > 100000 | > 100 | – | – | > 100000 | > 100 |
| COc1cc(F)c(F)c(F)c1C(=O)c1cnc(NC2CCN(S(C)(=O)=O)CC2)nc1N | 1640 | > 21.5 | 1280 | 6.69 | – | – | 1070 | 15.2 | 986 | > 23.6 | 409 | > 25 | 783 | 4.49 | 4780 | > 25 | 1390 | > 25 | 1490 | 7.98 |
| C#CC[C@]12CC(=O)CC[C@H]1CC1(C2)OCCO1 | – | > 100 | – | > 100 | – | – | – | – | – | > 100 | – | > 100 | – | > 100 | – | > 100 | – | > 100 | – | > 100 |
| CN(C)CCCn1c2c(c3ccc(N4CCNCC4)cc3c1=O)C(=O)c1ccccc1-2 | 1340 | 2.73 | – | – | 1180 | 2.93 | 351 | 1.9 | 698 | 2.2 | 164 | 1.61 | 624 | 2.28 | 833 | 2.55 | 541 | 3.23 | 1030 | 2.52 |
| O=c1c2cc(F)ccc2sc2c(NCCCNCCO)nc3ccc(F)cc3c12 | 1630 | 3.32 | 2240 | 7.21 | 1520 | 3.07 | 1820 | 3.74 | 1700 | 3.15 | 1730 | 3.48 | – | – | 2340 | 6.68 | 1720 | 3.29 | 1720 | 3.25 |
